According to US6632932B1, “Trisazo compound” (Orient Chemical Industries, Ltd., priority 2001, dated 2003):

How the values were obtained:
[1] = Evaluation of light resistance of ink jet print (xenon fade meter); assay type: physicochemical; details: amount of energy required for OD value (about 1.0) to decrease to 70%; ink with 6.0% by weight dye, pH 9.0-9.5 (ammonia), printed on PM Photo Paper; xenon 36 W/m^2 (300 to 400 nm), 24° C., 55% humidity
From the text: Preparation of Samples for Test:
An ink, the pH of which was adjusted between 9.0 and 9.5 with ammonia, prepared using the composition shown above was set into an ink jet printer (EM-900C manufactured by Seiko Epson Corp.). A piece of paper specially designed for ink jet (PM Photo Paper (Model: KA420PSK) manufactured by Seiko Epson Corp.) was printed with the ink, and it was used as a sample to be tested.
Light irradiation: The sample to be tested was set to a holder. Light irradiation with a xenon fade meter was carried out under the following condition:
Method for evaluation: The sample is taken out after each irradiation of an energy of 3000 kJ/m^2, and a part with an optical density (OD value) of about 1.0 is measured with a Macbeth density meter. The total amount of light irradiated at the time when the OD value has become 70% the original value is calculated.
Criterion for evaluation: The amount of energy required for the OD value to decrease to 70%.

[2] = Mutagenicity test (Ames test)
Solubility in water = assay type: physicochemical; details: under an ammoniacal alkaline condition

Structure (SMILES)	Evaluation of light resistance [1]	other results
Cc1cc(-c2ccc(N=Nc3c(S(=O)(=O)O)cc4cc(S(=O)(=O)O)c(N=Nc5ccccc5)c(O)c4c3N)c(C)c2)ccc1N=Nc1ccc(N)cc1N [C. I. Direct Black 154, reference compound]	×	–
COc1ccc(N=Nc2c(S(=O)(=O)O)cc3c(S(=O)(=O)O)cc(N=Nc4ccc5cc(S(=O)(=O)O)c(N=Nc6cc(Cl)ccc6C(=O)O)c(O)c5c4)c(N)c3c2O)c(S(=O)(=O)O)c1 [Trisazo compound (6)]	◯	–
Nc1c(N=Nc2ccc3cc(S(=O)(=O)O)c(N=Nc4ccccc4C(=O)O)c(O)c3c2)cc(S(=O)(=O)O)c2cc(S(=O)(=O)O)c(N=Nc3cc(C(=O)O)ccc3C(=O)O)c(O)c12 [Trisazo compound (8)]	⊚ (Not less than 70,000 kJ/m^2)	–
Nc1cc(O)ccc1N=Nc1ccc(Nc2ccc(N=Nc3c(S(=O)(=O)O)cc4cc(S(=O)(=O)O)c(N=Nc5ccccc5)c(O)c4c3N)cc2S(=O)(=O)O)cc1 [C. I. Direct Black 168, reference compound]	Δ (Not less than 10,000 kJ/m^2 and less than 40,000 kJ/m^2)	–
Nc1c(N=Nc2ccc3cc(S(=O)(=O)O)c(N=Nc4cccc(C(=O)O)c4)c(O)c3c2)cc(S(=O)(=O)O)c2cc(S(=O)(=O)O)c(N=Nc3ccccc3C(=O)O)c(O)c12 [Trisazo compound (11)]	◯	–
CCOc1ccc(N=Nc2c(S(=O)(=O)O)cc3ccc(N=Nc4cc(S(=O)(=O)O)c5cc(S(=O)(=O)O)c(N=Nc6ccccc6C(=O)O)c(O)c5c4N)cc3c2O)cc1 [Trisazo compound (5)]	⊚ (Not less than 70,000 kJ/m^2)	–

The next lines start with results.

Evaluation of light resistance [1]	Structure (SMILES)	other results
⊚ (Not less than 70,000 kJ/m^2)	Nc1c(N=Nc2ccc3cc(S(=O)(=O)O)c(N=Nc4ccccc4C(=O)O)c(O)c3c2)cc(S(=O)(=O)O)c2cc(S(=O)(=O)O)c(N=Nc3ccccc3C(=O)O)c(O)c12 [Trisazo compound (1)]	mutagenicity test (Ames test), ratio [2]: 1.27 times; result of mutagenicity test (Ames test) [2]: negative; solubility in water (Solubility in water): 14%
⊚ (Not less than 70,000 kJ/m^2)	Nc1c(N=Nc2ccc3c(O)c(N=Nc4ccccc4C(=O)O)c(S(=O)(=O)O)cc3c2)cc(S(=O)(=O)O)c2cc(S(=O)(=O)O)c(N=Nc3ccccc3C(=O)O)c(O)c12 [Trisazo compound (2)]	–
⊚ (Not less than 70,000 kJ/m^2)	Nc1c(N=Nc2ccccc2C(=O)O)cc(S(=O)(=O)O)c2cc(S(=O)(=O)O)c(/N=N\c3ccc4cc(S(=O)(=O)O)c(N=Nc5ccccc5C(=O)O)c(O)c4c3)c(O)c12 [Trisazo compound (14)]	–
